How the values were obtained:
[1] = Mouse pharmacokinetics after oral dosing; assay type: in vivo
ITK [2] = target: T1, ITK (Homo sapiens, UniProt Q08881); test: ITK occupancy in patients at steady state; assay type: in vivo
T1 sequence (Q08881 1-620): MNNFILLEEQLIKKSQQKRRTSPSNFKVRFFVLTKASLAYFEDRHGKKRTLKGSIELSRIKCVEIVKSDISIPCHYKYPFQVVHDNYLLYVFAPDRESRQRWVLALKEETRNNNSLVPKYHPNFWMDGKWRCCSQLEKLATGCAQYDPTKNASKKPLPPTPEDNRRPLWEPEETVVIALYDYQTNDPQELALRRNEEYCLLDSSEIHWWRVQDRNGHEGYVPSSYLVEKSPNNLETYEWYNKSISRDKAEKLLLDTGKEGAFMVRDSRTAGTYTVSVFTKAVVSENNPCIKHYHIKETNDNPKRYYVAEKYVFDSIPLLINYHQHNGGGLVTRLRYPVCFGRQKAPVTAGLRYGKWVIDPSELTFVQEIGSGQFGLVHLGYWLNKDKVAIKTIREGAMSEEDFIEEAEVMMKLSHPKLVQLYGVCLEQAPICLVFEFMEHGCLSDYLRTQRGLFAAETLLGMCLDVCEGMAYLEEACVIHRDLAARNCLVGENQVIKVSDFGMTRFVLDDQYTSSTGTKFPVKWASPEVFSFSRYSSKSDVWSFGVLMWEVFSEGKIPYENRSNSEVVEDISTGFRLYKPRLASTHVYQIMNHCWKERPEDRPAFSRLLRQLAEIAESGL

[3] = tested on: peripheral T cell lymphoma; test: Anti-tumor activity in human clinical trials (T cell lymphoma); assay type: in vivo
Text: Each lane represents a patient with the length indicating time on treatment. A treatment cycle is 21 days and then the cycle is repeated until the patient experiences tumor progression or unacceptable toxicity.

[4] = tested on: bleomycin-induced pulmonary fibrosis; test: Bleomycin-induced mouse pulmonary fibrosis model; assay type: in vivo; settings: 10 and 30 mg/kg QD, day 7-21
human CD4 T cells = test: T cell exhaustion markers; assay type: cell-based
ITK Cys-442 = target: T2, ITK Cys-442 (Homo sapiens, UniProt Q08881); test: Mass spectrometry of chymotryptic digest of inhibited ITK; assay type: binding; settings: LC MS/MS, 5-fold molar excess
T2 construct: The protein construct comprised amino acids 2 to 620 of ITK; purchased Cama Bioscience (so in the source)
Protocol: ITK was obtained as a glutathione S transferase (GST) fusion protein from Cama Bioscience (Product Number 08 081, Lot 13CBS 0356K). The protein was supplied at 586 μg/mL (5.9 μM ITK) in 50 mM TRIS, 150 mM NaCl, 0.05% Brij35, 1 mM dithiothreitol, and 10% glycerol at pH 7.5. The protein construct comprised amino acids 2 to 620 of ITK and is fused to GST at the N terminus of ITK (ITK GST). To prepare the samples for mass spectral analysis, a 2 μM sample of the ITK GST fusion protein was incubated with a 5-fold molar excess of CPI 818 (10 μM). A control, untreated sample of ITK GST was prepared in parallel. […] After the incubation phase, samples were frozen and stored at −80° C. Mass spectral analysis was conducted in collaboration with the Stanford University mass spectrometry facility. The control, untreated ITK GST fusion protein, and the CPI 818 inhibited sample were subjected to chymotrypsin digestion and then analyzed by liquid chromatography coupled with tandem mass spectrometry (LC MS/MS). […] Ions electrosprayed from this column were detected using an Orbitrap Fusion mass spectrometer (Thermo Scientific, San Jose, CA) operated in a data dependent fashion using both ETD and HCD fragmentation to improve detection efficiency of modified peptides. […] Peptides were constrained to 12 ppm mass accuracy for precursor ions, and 0.4 Da mass accuracies for fragment ions detected in the ion trap. […]

ITK [5] = target: T1, ITK; test: Jump dilution assay; assay type: binding; parameters: purchased Invitrogen; settings: for reversibility of ITK inhibition on dilution: dilution into competitive probe
Protocol: The assay format is similar to the Competitive Tracer-binding Assay and relies on the reversible binding of tracer 236 to recombinant tagged human ITK. […] The mixture was then filtered through a desalting column (Thermo Scientific, Zeba Spin Desalting Column, 40K MWCO) to remove unbound inhibitor. The assay was initiated immediately after the desalting step by diluting the eluate containing the inhibited kinase complex 50-fold into a solution of anti-tag antibody (2 nM final) and excess tracer 236 (40 nM final). Dissociation of inhibitor and binding of tracer was monitored immediately after assay initiation using an EnVision plate reader (excitation 340 nm, dual emission at 665 nm and 615 nm). Reagents including GST-tagged recombinant human ITK, Kinase tracer 236, Lanthascreen Eu-Anti-GST antibody and kinase buffer A were purchased from ThermoFisher Scientific/Invitrogen. Each data point represents the mean of technical triplicates. Equation 3 was fitted to the BMS-509744 data to obtain the rate constant using GraphPad Prism from which the half-life was calculated.

[6] = PTCL-NOS patient, within 8-15 days

- Tmax ([1]; male, C57Bl/6, mouse, plasma, single 50 mg/kg PO): 0.5 h
- half-life ([1]; male, C57Bl/6, mouse, plasma, single 50 mg/kg PO, read-out: half-life in circulation (converted)): 2.4 h
- oral bioavailability ([1]; mouse, in vivo, po): orally bioavailable
- decrease of plasma concentration ([1]; single 50 mg/kg PO, over first 8 h): 10 fold
- receptor occupancy at 400 mg (ITK [2]; human, 400 mg BID and 600 mg BID, read-out: steady state trough ITK occupancy): ~90%
- steady state peak ITK occupancy, mean (ITK [2]; patients, 100-600 mg BID): at least 90%
- covalent modification of ITK peptides (ITK Cys-442): covalently labeling Cys-442
- persistence of blockade of tracer binding to ITK (ITK [5]; after jump dilution): greater than 24 h
- reversibility of ITK inhibition on dilution (ITK [5]): did not dissociate upon dilution
- reversibility of ITK inhibition on dilution (ITK [5]; listed as CP-818): irreversible
Structure (SMILES): C=CC(=O)N1CCCN(C(=O)c2cc(Sc3cnc(NC(=O)C4CC4)s3)c(C)cc2OC)C[C@H]1C [CPI-818]
- dose with best anti-tumor response ([3]; 100, 200, 400, 600 mg BID evaluated): best response occurred at the dose of 200 mg BID
- duration of complete remission ([3]; Example 2, 200 mg BID): 25 months
- response of patient with peripheral T-cell lymphoma NOS ([3]; Example 2, 200 mg BID): complete remission
- response of patient with PTCL-NOS ([3]; FIG. 23, cycle 17, after 1 year of treatment): complete response
- duration of complete response ([3]; FIG. 23 patient): 19 months
- platelets (PLT) and lactate dehydrogenase (LDH) [3, 6]: improvement
- subcutaneous (SQ) tumor [3, 6]: dramatic reduction
- BALF leukocytes [4]: reduced
- lung weight [4]: reduced
- T cell exhaustion: granzyme B and IFNγ levels (human CD4 T cells): reverses T cell exhaustion
- LAG3, TIGIT and PD-1 (human CD4 T cells; various concentrations): downregulate biomarkers of T cell exhaustion

— patent US20250213587A1, “ITK INHIBITORS FOR INCREASING TH1 CELL ACTIVITY” (Corvus Pharmaceuticals, Inc., priority 2022, published 2025)
